The values below come from ChEMBL document CHEMBL4402608 (J Med Chem, 2020).

The term pEC50 denotes the negative decadic logarithm of the EC50, by convention in mol/L. For orientation: pIC50 means −log10 of the IC50, conventionally taken in molar units.

pEC50, pIC50: −log10 of the molar value. Some results are limits rather than exact numbers.

Holding throughout (type): cell-based
One test concerns the target D(3) dopamine receptor (Homo sapiens, UniProt P35462). Description: Agonist activity at human D3R expressed in CHOK1 cells assessed as induction of beta-arrestin recruitment measured after 90 mins by beta-galactosidase based PathHunter assay. Particulars: for pEC50: read-out: EC50; call rule not given here. In general terms: Activated receptors often draw arrestin, which recruitment assays turn into a signal.

Test [1] concerns the target T1, D(2) dopamine receptor (Homo sapiens, UniProt P14416). Description: Antagonist activity at human D2R expressed in CHOK1 cells assessed as inhibition of dopamine-induced beta-arrestin recruitment measured after 120 mins by beta-galactosidase based PathHunter assay. Conditions: for pIC50: read-out: IC50.
The target in test [2] is T1, D(2) dopamine receptor. Description: Agonist activity at human D2R expressed in CHOK1 cells assessed as induction of beta-arrestin recruitment measured after 90 mins by beta-galactosidase based PathHunter assay. Conditions: for pEC50: read-out: EC50.

For the compound `Cc1c(C(=O)N2CCN(CCOc3cccnc3)CC2)[nH]c2ccccc12`, the pEC50 at D(3) dopamine receptor is 7.10.
Regarding `COc1ccc(OCCN2CCN(C(=O)c3cc4ccccc4[nH]3)CC2)cc1OC`, the pIC50 on D(2) dopamine receptor [1] is under 4.30. On D(3) dopamine receptor, the pEC50 was 6.15. For the same compound, the EC50 entry at D(2) dopamine receptor [2] is “Not Active”.
For `O=C(c1cc2ccccc2[nH]1)N1CCN(CCOc2ccc(Cl)cc2)CC1`, at D(2) dopamine receptor [1], the pIC50 is under 4.30. The pEC50 at D(3) dopamine receptor was 6.94. The EC50 entry at D(2) dopamine receptor [2] is “Not Active”.
Regarding `COc1ccc(OCCN2CCN(C(=O)c3cc4cccnc4[nH]3)CC2)cc1`, on D(3) dopamine receptor, the pEC50 is 6.78.
Regarding `CCOc1ccc(OCCN2CCN(C(=O)c3cc4ccccc4[nH]3)CC2)cc1`, the pIC50 on D(2) dopamine receptor [1] is under 4.00. In addition, the pEC50 at D(3) dopamine receptor was under 4.00. Further, the EC50 entry at D(2) dopamine receptor [2] is listed as “Not Active”.
For `COc1ccc(OCCN2CCN(C(=O)c3cc4cccc(C)c4[nH]3)CC2)cc1`, the pIC50 on D(2) dopamine receptor [1] was under 4.00. Further, the pEC50 is 6.33 on D(3) dopamine receptor and 5.00 at D(2) dopamine receptor [2].
On to `O=C(c1cc2ncccc2[nH]1)N1CCN(CCOc2cccnc2)CC1`, for which the IC50 result at D(2) dopamine receptor [1] is “Not Active”. The pEC50 on D(3) dopamine receptor is 6.70; on D(2) dopamine receptor [2] it was 5.52.
`COc1ccc(N(C)CCN2CCN(C(=O)c3cc4ccccc4[nH]3)CC2)cc1`: the negative-log IC50 (pIC50) on D(2) dopamine receptor [1] is under 4.00. The EC50 entry on D(2) dopamine receptor [2] is listed as “Not Active”.
The matching figures for `CCc1ccc(OCCN2CCN(C(=O)c3cc4ccccc4[nH]3)CC2)cc1`: under 4.30 and “Not Active”.
On to `O=C(c1cc2c(Cl)cccc2[nH]1)N1CCN(CCOc2cccnc2)CC1`, for which the IC50 entry at D(2) dopamine receptor [1] was “Not Active”. Moreover, on D(2) dopamine receptor [2], the pEC50 is 6.66.
With `O=C(c1cc2ccccc2[nH]1)N1CCN(CCOc2ccc3c(c2)OCO3)CC1`, the pEC50 on D(3) dopamine receptor was 6.54.
On to `O=C(c1cc2ccncc2[nH]1)N1CCN(CCOc2cccnc2)CC1`, for which the pEC50 on D(3) dopamine receptor was 7.09.
As to `COc1ccc(OCCN2CCN(C(=O)c3cc4ccncc4[nH]3)CC2)cc1`, at D(2) dopamine receptor [1], the pIC50 was under 4.00. Moreover, the pEC50 at D(3) dopamine receptor was 6.09; at D(2) dopamine receptor [2], 5.11.
With `COc1ccc(OCCN2CCN(C(=O)c3ccc(OC)cc3)CC2C)cc1` (configuration not stated), the pIC50 on D(2) dopamine receptor [1] was under 4.00. Further, the pEC50 at D(3) dopamine receptor was 5.36. For the same compound, the EC50 entry on D(2) dopamine receptor [2] is given as “Not Active”.
Regarding `COc1ccc(OCCN2CCN(C(=O)c3cc4ncccc4[nH]3)CC2)cc1`, at D(2) dopamine receptor [1], the IC50 entry was “Not Active”. The pEC50 on D(2) dopamine receptor [2] was under 4.00.
Turning to `O=C(c1cc2cc(Cl)ccc2[nH]1)N1CCN(CCOc2cccnc2)CC1`, the IC50 result on D(2) dopamine receptor [1] is given as “Not Active”. On D(2) dopamine receptor [2], the pEC50 is 5.85.
Regarding `COc1cccc(OCCN2CCN(C(=O)c3cc4cccnc4[nH]3)CC2)c1`, the IC50 result on D(2) dopamine receptor [1] is listed as “Not Active”. Further, the pEC50 at D(3) dopamine receptor was 7.30; at D(2) dopamine receptor [2] it was 6.89.
On to `CCc1ccc(OCCN2CCN(C(=O)c3ccc(OC)cc3)CC2)cc1`, for which the pIC50 at D(2) dopamine receptor [1] was under 4.30. For the same compound, the pEC50 on D(3) dopamine receptor was 5.59. For the same compound, the EC50 entry on D(2) dopamine receptor [2] is recorded as “Not Active”.
Take `COc1ccc(OCCN2CCN(C(=O)c3cc4cc(OC)ccc4[nH]3)CC2)cc1`: the pIC50 on D(2) dopamine receptor [1] is under 4.00. Further, the values for the pEC50 at D(3) dopamine receptor and on D(2) dopamine receptor [2] were 6.28 and 5.11, respectively.
In the case of `O=C(c1nc2ccccc2[nH]1)N1CCN(CCOc2cccnc2)CC1`, the IC50 result on D(2) dopamine receptor [1] is recorded as “Not Active”. In addition, the pEC50 on D(2) dopamine receptor [2] was 5.62.
Turning to `COc1ccc(OCCN2CCN(C(=O)c3cc4cnccc4[nH]3)CC2)cc1`, on D(2) dopamine receptor [1], the pIC50 was under 4.00. The pEC50 was 6.24 at D(3) dopamine receptor and 5.26 on D(2) dopamine receptor [2].
For `O=C(c1cc2ccccc2[nH]1)N1CCN(CCOc2cncc(Cl)c2)CC1`, the IC50 result on D(2) dopamine receptor [1] is given as “Not Active”. Moreover, the pEC50 at D(3) dopamine receptor was 8.30; at D(2) dopamine receptor [2], 6.10.
Turning to `COc1ccc(OCCN2CCN(C(=O)c3cc4cccc(OC)c4[nH]3)CC2)cc1`, on D(2) dopamine receptor [1], the pIC50 was under 5.00. The values for the pEC50 on D(3) dopamine receptor and at D(2) dopamine receptor [2] were 6.01 and 5.22, respectively.
Regarding `Cc1ccc(OCCN2CCN(C(=O)c3cc4ccccc4[nH]3)CC2)cc1`, the pIC50 at D(2) dopamine receptor [1] is under 4.00. The pEC50 at D(3) dopamine receptor is 6.82; on D(2) dopamine receptor [2], under 4.30.
For the compound `COc1cccc(OCCN2CCN(C(=O)c3cc4ccccc4[nH]3)CC2)c1`, the pEC50 at D(3) dopamine receptor is 7.47.
Consider `COc1ccc(OCCCCN2CCN(C(=O)c3cc4ccccc4[nH]3)CC2)cc1`, for which the EC50 entry at D(3) dopamine receptor is “Not Active”.
`COc1ccc(OCCN2CCN(C(=O)c3cccc(OC)c3)CC2)cc1`: the pEC50 on D(3) dopamine receptor is 6.26.
Regarding `COc1ccc(OCCN2CCN(C(=O)c3cc4c(C)cccc4[nH]3)CC2)cc1`, on D(3) dopamine receptor, the pEC50 was 6.58.
For `COc1ccc(OCCN2CCN(C(=O)c3ccccc3)CC2)cc1`, the pIC50 at D(2) dopamine receptor [1] is under 4.30. For the same compound, the pEC50 on D(3) dopamine receptor is 6.26. Moreover, on D(2) dopamine receptor [2], the EC50 entry is “Not Active”.
Consider `COc1ccc(OCCN2CCN(C(=O)c3c[nH]c4ccccc34)CC2)cc1`, for which the pEC50 on D(3) dopamine receptor was 6.68.
Consider `COc1ccc(OCCC2CCN(C(=O)c3cc4ccccc4[nH]3)CC2)cc1`, for which, at D(2) dopamine receptor [1], the IC50 entry is recorded as “Not Active”. Besides, the EC50 result on D(3) dopamine receptor and on D(2) dopamine receptor [2] was “Not Active” throughout.
`COc1cccc(OCCN2CCN(C(=O)c3cc4cc(OC)ccc4[nH]3)CC2)c1`: the IC50 entry on D(2) dopamine receptor [1] is “Not Active”. In addition, the pEC50 at D(3) dopamine receptor is 6.55; on D(2) dopamine receptor [2], 5.77.
